This is an account of results in article PMC5793130, “The Peptide PnPP-19, a Spider Toxin Derivative, Activates μ-Opioid Receptors and Modulates Calcium Channels” (Toxins, 2018).

The subject of one test is μ-opioid receptors. The note with it: cited from earlier work.
In test [1] the test system is μ-opioid receptor-β-arrestin2 association. The test can be described thus: BiFC β-arrestin2 recruitment in HEK293T cells. Type of test: cell-based. The note with it: HEK293T coexpressing μ-opioid receptor-Yc and β-arrestin2-Yn; 10^−10 M–10^−4 M, 60 min, 37 °C; normalized by 10 μM DAMGO (100%); n = 5.
Method: HEK293T were cultured in DMEM (Sigma-Aldrich) supplemented with 10% v/v fetal bovine serum. […] To analyze whether activation of μ-opioid receptor would induce recruitment of β-arrestin2, the Bimolecular fluorescence complementation (BiFC) based detection of μ-opioid receptor-β-arrestin2 association was conducted. The cells were seeded at 33,000 cells/well onto poly (D-lysine)-coated Greiner 655,090 imaging plates. Plates were kept in a humidified incubator at 37 °C filled with 5% CO2 for 24 h. […] After that, cells were fixated with 3% paraformaldehyde in PBS for 10 min at room temperature. Then, cells were washed once with PBS and the cell nuclei were stained for 15 min with H33342 (2 μg/mL in PBS, Sigma, St. Louis, MO, USA). H33342 was then removed by a final PBS wash. Images (4 central sites/well) were acquired automatically on the IX Ultra confocal plate reader, using 405 nm/488 nm laser lines for H33342 and complemented YFP excitation, respectively. Data was analyzed by the use of MetaXpress software (version 5.3, Sunnyvale, CA, USA, 2013) as described by Liu and co-authors [38] and normalized by 10 μM of DAMGO (100%).
In test [2] the test system is calcium channels in dorsal root ganglion (DRG) neurons. Type of test: cell-based. The following applies: rat DRG neurons.
Method: Intact neurons of rat dorsal root ganglia (DRG) were used for whole-cell patch-clamp recordings.
DRGs were isolated from adult Wistar rats (200 ± 300 g) and neurons cultured as described by Lindsay (1988) [35] with minor modifications. The neurons were isolated and washed by gravity in phosphate-buffered saline (PBS). The cells were than incubated with collagenase type IV (sigma, St. Louis, MO, USA) solution (5 mL of Dulbecco’s modified Eagle’s medium—DMEM; 10% v/v fetal bovine serum; penicillin 200 units/mL—streptomycin 200 μg/mL; 12.5 mg of collagenase type IV) for 90 min at 37 °C. After that, ganglions were washed 3 times by gravity in PBS and trypsin solution (2500–6000 BAEE U/ML, sigma, St. Louis, MO, USA) was added. In order to dissociate the DRG neurons, the ganglions were taken up and down with the use of a fine tipped transfer pipette. Cells were then incubated with the trypsin solution for 10 min at 37 °C. After the incubation period, 1 mL of bovine serum albumin (BSA) solution (16% v/v in PBS) was added and cells were more firmly dissociated. The cell suspension was added on the top of 3 mL BSA solution and centrifuged at 500× g for 6 min. The supernatant was discarded and the pellet was resuspended in complete media (DMEM media; 10% v/v fetal bovine serum; 1% v/v penicillin/streptomycin; 0.1% v/v NGF). […]

With `C[C@@H](Cc1ccsc1)NC(=O)NC[C@H](Cc1ccc(O)cc1)N(C)C` [PZM21], in the test with μ-opioid receptors, the β-arrestin2 recruitment entry is on record as “minimal β-arrestin2 recruitment”.

In the case of “[D-Ala^2, MePhe^4, Gly-ol^5] encephalin [DAMGO]”, in test [1], the β-arrestin2 recruitment entry is “could clearly induce β-arrestin2 recruitment”.

Turning to `C=CCN1CC[C@]23c4c5ccc(O)c4O[C@H]2C(=O)CC[C@@]3(O)[C@H]1C5` [naloxone], the “effect of naloxone alone on calcium current density” value in test [2] (10 μM naloxone) is reported as “no significant effect on the current density”. Besides, the “effect of naloxone pre-incubation on PnPP-19 inhibition of calcium current” value in test [2] (10 μM naloxone for 30 min, then 1 μM PnPP-19) is “completely blocks the activity of PnPP-19”.
